Source: article PMC9304322, “Targeting retinoic acid receptor alpha-corepressor interaction activates chaperone-mediated autophagy and protects against retinal degeneration” (Nature Communications, 2022)
Where “and” joins values, the source holds several entries; their conditions need not be identical. Equal entries are not always repeated.

What was measured:
[1] = tested on: NIH3T3 cells control (empty vector) or knock-down (KD) for N-CoR1; test: CMA activity in NIH3T3 control or knock-down for N-CoR1; format: cell-based, mouse; set-up: CMA activity: unit not given here; conditions: for activating effect on CMA upon knock-down of NCOR1: 20μM for 24 h; for CMA activity: Fig. 2h, individual replicate values
Description: NIH3T3 mouse fibroblasts (CRL-1658), CaCo2 cells human colorectal adenocarcinoma (HTB-3), and the N2a neuroblastoma cell line (CCL-131) were obtained from the American Type Culture Collection and were validated by genomic PCR. Primary human fibroblasts (GM01651) were from Coriell Repository. Cells were cultured to full confluence in a 37 °C incubator with 5% CO2 in complete Dulbecco’s modified Eagle’s medium (DMEM, Sigma #D5030) supplemented with 10% heat-inactivated newborn calf serum (HyClone #SH30401.02HI), 1% penicillin/streptomycin/fungizone (Invitrogen, #10072322). All the cell lines were tested for mycoplasma contamination using DNA staining protocol with Hoechst 33258 dye and none of them was found positive. Knock-down of Ncor1 was done using lentiviral mediated shRNA (SHCLNG-NM_011308) from the Sigma Mission library following standard procedures. The efficiency of knock-down was tested by immunoblot. Cell viability was measured using the CellTiter-Blue kit (Promega, #G9241) 24 h after the addition of the different stressors according to the manufacturer’s instructions. All cell lines were validated by genomic PCR.
Cells were transduced with lentivirus carrying the KFERQ-PS-Dendra reporter as before. Cells were photoactivated by exposure to a 3.5 mA (current constant) light emitting diode (LED: Norlux, 405 nm) for 3 min and then plated in glass-bottom 96 well plates. At the desired times, cells were fixed with 4% PFA and imaged using high-content microscopy (Operetta system, Perkin Elmer). Images were quantified using the manufacturer’s software in a minimum of 1,200 cells in 9 independent fields per well. […] This was particularly important in the case of primary human cells where the efficiency of transduction was ~65%. To avoid confounding effects for drug-induced changes in cell volume or adherence to the plate that could bring a fraction of the cells per field outside of focus, we set a threshold to count only […] that have at least 1/10 of the average number of […] detected in the untreated wells for each cell type (3–4 puncta/cell in the case of NIH3T3 and N2a cells and 5 puncta/cell in primary human fibroblasts).

[2] = In vitro solubility by nephelometry; format: physicochemical; conditions: in words
Description: In vitro solubility in the following conditions A) HBSS/HEPES 10 mM/BSA 0.1% pH 6 B) HBSS/HEPES 10 mM/BSA 0.1% pH 7.4 C) TRIS/BSA 0.1% PBS (pH 7.4 and at indicated doses were measured by Nephelometry using the NEPHELOstar Galaxy apparatus (BMG Lab Technologies). In vitro stability in human, mouse and rat liver microsomes and permeability using a bidirectional permeability assay with CaCo-2 cells (pH 6.5/7.4) assays were performed with standard methodology and analyzed by LC-MS/MS. at SIMM-SERVIER joint Biopharmacy Laboratory. ADME properties for CA39 and CA77 were predicted by QikProp (Schrödinger, LLC, Releases 2016-2020) software.

KFERQ-Dendra mice = test: CMA activity in tissues of KFERQ-Dendra mice;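 as to % cells: percentage of blood CD4+ T cells with more than 3 CMA puncta per cell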; format: in vivo, mouse; set-up: Fig. 3g value / Fig. 3g value, Mean 2: unit not given here; conditions: for Fig. 3g value, Mean 2: group mean of the test details, n 6; for Fig. 3g value / % cells: single replicate values; for % cells: Fig. 3d; for fluorescent Dendra+ puncta in liver: KFERQ-Dendra mice, i.p. 30 mg/kg bw daily for 3 days; for number of Dendra+ puncta per cell in retina (Fig. 4f), average / number of Dendra+ puncta per cell in retina (Fig. 4f), individual fields: flat-mounted retinas; for number of Dendra+ puncta per MAP2 + cell (Fig. 4b), individual sections: hippocampus (CA1 region), i.p. 30 mg/kg bw daily for three consecutive days
Description: C57BL/6 J mice wild-type (WT) and homozygous for the Pde6 mutation (rd10 mouse model of retinal degeneration) were obtained from The Jackson Laboratory and experiments were performed at the age indicated in each part of the study. C57BL/6 KFERQ-Dendra mice were generated by back-crossing FVB KFERQ-Dendra mice with wild-type C57BL/6 mice for 8 generations. Both male and female animals were used in this study in equally distribution groups. However, results from both sexes were pooled, because of absence of significant differences in any of the parameters analyzed after statistical analysis with a mixed model of two-way ANOVA sex and treatment as independent variables and the corresponding measure as dependent variable. All animals were housed in a barrier-controlled facility (19–23 °C 30–60% relative humidity; 12 h light/dark cycle) with ad libitum access to standard chow pellets (protein 19 gm%/carbohydrate 67 gm%/fat 4 gm%) and water. For animal administration of CA compounds, a formula containing 30% PEG 400 (Sigma, #8.0745), 65% of 5% glucose solution, 5% Tween 80 (Sigma, #P1754) was used to dissolve them. CA compounds were prepared freshly by adding 5% DMSO and sonicating for 1 h. Treatment of KFERQ-Dendra mice with the CA compounds was done at 4 months of age by i.p. daily injection of 30 mg/kg bw or vehicle for three consecutive days and tissues collected 6 h after the last injection. In the case of rd10 mice, animals were daily injected from P18 to P25 with CA77 (40 mg/kg bw). In the case of intravitreal administration, a single intravitreal injection was applied at P18 with CA77 (40 µM) in DMSO/PBS and the contralateral eye was injected with PBS and DMSO at same concentration. At P26, mice were sacrificed and eyes fixed overnight with 4% PFA (Sigma, #P6148) in PBS at 4 °C for immunofluorescence or retinas dissected and immediately frozen for biochemistry. Distribution of animals in the vehicle or treatment group was done randomly. ICR (CD-1) outbred 3 months old male mice from ENVIGO were used for the pharmacokinetic studies (see pharmacokinetic section for housing and handling details). All animal studies and procedures complied with ethical regulations, were performed in accordance with the European Union guidelines and the ARVO Statement for the Use of Animals in Ophthalmic and Vision Research and were approved by the Institutional Animal Care and Use Committee at the Albert Einstein College of Medicine, the CSIC Bioetica Comite and approved by the Comunidad de Madrid, PROEX232/17.
All mice were perfused with PBS. Livers were post-fixed overnight at 4 °C in picric acid fixation buffer (2% formaldehyde, 0.2% picric acid in PBS, pH7.0) and then washed with 70% ethanol, followed by two washes in PBS. Livers were immersed in 30% sucrose and then embedded in OCT for sectioning in a cryostat (Leica CM3050 S). After airdrying for 30 min, sections were stored at −20 °C until use. Brains were post-fixed for 12 h in 4% paraformaldehyde, cryoprotected in PBS containing 20% sucrose before being frozen by immersion in a cold isopentane bath (−50 °C), and stored immediately at −80 °C until sectioning. Brains were also sectioned in a cryostat at −20 °C in coronal 40 μm-thick free-floating sections. Immunostainings were performed after permeabilization of the sections with 0.3% Triton X-100 in PBS for 30 minutes at RT followed by blocking (10% normal goat serum, 2% Triton X-100 in PBS) and subsequent incubation with the primary and appropriate anti-species secondary antibody. Cell nuclei were stained using Hoechst (Life Technologies, 33342) at 1:5000 for 30 s (in retina) or 10 min (in brain sections) prior to mounting. Images were acquired with a Leica confocal TCS-SP8 (Leica Microsystem) using an HCX Plan Apo CS ×63.0 1.40 NA oil objective and the Leica Application Suite X (LAS X). Puncta was quantified using ImageJ Software (NIH)[38] after thresholding. […]

[3] = i.p. 30 mg/kg bw daily for three days
[4] = i.p. 30 mg/kg bw daily for three days, 30 mg/kg

Compound | activating effect on CMA upon knock-down of NCOR1 [1] | CMA activity ([1]; Ctr cells) | CMA activity ([1]; NCOR(-) (NCoR1 KD) cells) | solubility [2] | Fig. 3g value, Mean 2 (KFERQ-Dendra mice) | Fig. 3g value (KFERQ-Dendra mice) | % cells (KFERQ-Dendra mice) | fluorescent Dendra+ puncta in liver (KFERQ-Dendra mice) | number of Dendra+ puncta per cell in retina (Fig. 4f), average (KFERQ-Dendra mice; [3]) [puncta/cell] | number of Dendra+ puncta per cell in retina (Fig. 4f), individual fields (KFERQ-Dendra mice; [4]) | number of Dendra+ puncta per MAP2 + cell (Fig. 4b), individual sections (KFERQ-Dendra mice; 30 mg/kg) | number of Dendra+ puncta in individual TH+ cells (Fig. S8d) (KFERQ-Dendra mice; midbrain substantia nigra, i.p. 30 mg/kg bw daily for three days, 30 mg/kg)
Clc1ccc2c(c1)OCC(c1ccc(-c3ccccc3)cc1)=N2 [CA39] | completely ablated | 28.3 and 30.0 and 31.5 | 3.7 and 5.0 and 5.1 | reasonable | 20 | 16.28 and 30.33 and 23.44 and 14.29 and 16.39 and 19.29 | 21% and 39% and 30% and 21.8% and 22.6% and 12.2% and 9.5% and 24.2% and 12.8% and 21.2% | significant increase in the number of fluorescent Dendra^+ puncta | 1.185 | 1.154 puncta/cell and 0.857 puncta/cell and 0.867 puncta/cell and 0.700 puncta/cell and 1.556 puncta/cell and 1.350 puncta/cell and 1.500 puncta/cell and 0.737 puncta/cell and 1.385 puncta/cell and 0.958 puncta/cell and 0.950 puncta/cell and 2.000 puncta/cell and 1.182 puncta/cell and 1.400 puncta/cell | 20 and 22 and 18 and 25 and 16 and 15 and 12 and 10 | 27 and 32 and 4 and 2 and 55 and 34 and 23 and 3 and 21 and 1 and 48 and 38 and 6 and 39 and 22 and 45 and 12 and 35
CC(=O)Nc1ccc(C2=Nc3ccc(Cl)cc3OC2)cc1 [CA77] | completely ablated | 22.4 and 17.9 and 26.0 | 4.3 and 4.0 and 4.8 | reasonable | 17.33 | 10 and 12 and 22 and 23 and 19 and 18 | 9% and 28% and 12% and 18% and 22% and 17% and 32% and 26% | significant increase in the number of fluorescent Dendra^+ puncta | 1.396 | 1.250 puncta/cell and 1.040 puncta/cell and 1.583 puncta/cell and 1.063 puncta/cell and 1.100 puncta/cell and 1.667 puncta/cell and 1.375 puncta/cell and 1.846 puncta/cell and 1.000 puncta/cell and 1.750 puncta/cell and 1.684 puncta/cell | 22 and 17 and 15 and 26 and 12 and 18 and 9 and 5 | 
